{"source": "paper PMC10045483", "about": "“Comparative Pharmacokinetic Study of 5 Active Ingredients after Oral Administration of Zuogui Pill in Osteoporotic Rats with Different Syndrome Types” (International Journal of Analytical Chemistry, 2023)", "key": {"[1]": {"experiment": "Stability of analytes in rat plasma (QC samples) under storage conditions", "details": "n = 5; for Stability, Room temperature for 4 h, Mean: 25°C; for Stability, Three freeze-thaw cycles, Mean: −20°C to 25°C", "method": "QC samples at three levels using five replicates were used to evaluate the stability under the following conditions: 4 h at room temperature (25°C), 24 h in autosampler (4°C), and three freeze-thaw cycles (−20°C to 25°C)."}, "[2]": {"experiment": "Pharmacokinetic study of 5 compounds in rat plasma after oral administration of Zuogui Pill extract (HPLC-MS/MS, noncompartmental analysis)", "type": "in vivo, Female Sprague-Dawley rats", "details": "oral Zuogui Pill extract 1.5 mL/100 g; for Cmax / Tmax / half-life / CL/F / MRT last / MRT inf: female, Sprague-Dawley, rat, po, 1.5 mL/100 g; for Cmax / Tmax / half-life / AUC0–t / AUC0–∞: n = 6; for CL/F: n = 6, read-out: CL_F_obs (converted); for MRT last: n = 6, read-out: MRT0–t; for MRT inf: n = 6, read-out: MRT0–∞", "protocol": "Female Sprague-Dawley rats (180–220 g) were purchased from Shanghai Laboratory Animal Centre (Shanghai, China). The rats were maintained in a standard environment (22 ± 1°C, 60 ± 10% relative humidity, and a 12 h light/dark cycle) for one week to acclimate and fed water and food ad libitum. Twenty-four rats were divided randomly into […] and treated through ovary enucleation to establish the model of osteoporosis. Ten weeks after operation, osteoporosis models of kidney-yang-deficiency and kidney-yin-deficiency were established by intramuscular injection of hydrocortisone (25 mg/kg) and intragastric administration of thyroxine suspension (160 mg/kg) for 10 days, respectively. The femur of two rats from each group was then stained with hematoxylin and eosin (H&E) to assess histopathological change. Also, the validation of osteoporosis kidney-yang-deficiency and kidney-yin-deficiency models was judged by detecting the level of cyclic adenosine monophosphate (cAMP) and cyclic guanosine monophosphate (cGMP) in rat plasma. Laboratory Animal Management and Ethics Committee of Zhejiang Chinese Medical University approved all animal treatments (ZSLL-2014-48).\nOne hundred microliters of plasma was mixed with 100 μL of the IS solution, followed by 700 μL of methanol:acetonitrile (1 : 1). After 2 min of vortex mixing, the mixture was spun for 15 min at 8000 rpm and 4°C. The supernatants were collected and dried in a high-purity N2 environment. The residues were redissolved in 100 μL methanol and centrifuged for 15 min at 13000 rpm and 4°C. Finally, an aliquot of 10 μL supernatants was used to conduct the analysis.\nFour groups of rats were orally administered with Zuogui Pill extract at a dose of 1.5 mL/100 g. Then, 0.3 mL blood samples were collected from orbital veins at 0, 0.08, 0.17, 0.25, 0.5, 1, 2, 4, 6, 8, 12, and 24 h after administration, placed in an anticoagulant tube, and centrifuged for 15 min at 5000 rpm and 4°C. The plasma was prepared and stored at −20°C until analysis.\nPhoenix WinNonlin 6.4 software was used to estimate pharmacokinetic parameters using noncompartmental analysis. Furthermore, SPSS 26 software was used to compute comparisons of the pharmacokinetic data among the four groups according to a one-way ANOVA. The results are presented as mean ± SD."}, "[3]": {"details": "high QC (800, 16000, 3200, 400, 40 ng/mL in the same order)"}, "[4]": {"details": "low QC (2, 40, 8, 1, 0.1 ng/mL for chlorogenic acid, loganin, morroniside, aucubin, protocatechuic aldehyde)"}, "[5]": {"details": "middle QC (40, 800, 160, 20, 2 ng/mL in the same order)"}, "[6]": {"details": "osteoporosis rats (ovariectomized)"}, "[7]": {"details": "osteoporotic rats with kidney-yang-deficiency"}, "[8]": {"details": "osteoporotic rats with kidney-yin-deficiency"}}, "note": "Like-named read-outs stand apart in the source and are kept apart here."}
{"smiles": "COC(=O)C1=CO[C@@H](O[C@@H]2O[C@H](CO)[C@@H](O)[C@H](O)[C@H]2O)[C@@H]2[C@@H](C)[C@@H](O)C[C@H]12", "note": "[Loganin, loganin]", "values": [{"measurement": "Stability, Room temperature for 4 h, Mean", "setting": "[1]; [3]", "value": 85.6, "unit": "%"}, {"measurement": "Stability, Room temperature for 4 h, Mean", "setting": "[1]; [4]", "value": 88.3, "unit": "%"}, {"measurement": "Stability, Room temperature for 4 h, Mean", "setting": "[1]; [5]", "value": 87.4, "unit": "%"}, {"measurement": "Stability, Autosampler at 4°C for 24 h, Mean", "setting": "[1]; [3]", "value": 84.4, "unit": "%"}, {"measurement": "Stability, Autosampler at 4°C for 24 h, Mean", "setting": "[1]; [4]", "value": 94.6, "unit": "%"}, {"measurement": "Stability, Autosampler at 4°C for 24 h, Mean", "setting": "[1]; [5]", "value": 85.8, "unit": "%"}, {"measurement": "Stability, Three freeze-thaw cycles, Mean", "setting": "[1]; [3]", "value": 92.4, "unit": "%"}, {"measurement": "Stability, Three freeze-thaw cycles, Mean", "setting": "[1]; [4]", "value": 86.4, "unit": "%"}, {"measurement": "Stability, Three freeze-thaw cycles, Mean", "setting": "[1]; [5]", "value": 89.5, "unit": "%"}, {"measurement": "Cmax", "setting": "[2]; normal rats", "value": "13500 ± 2030", "unit": "ng/mL"}, {"measurement": "Tmax", "setting": "[2]; normal rats", "value": 0.25, "unit": "h"}, {"measurement": "half-life", "setting": "[2]; normal rats", "value": "4.51 ± 0.45", "unit": "h"}, {"measurement": "CL/F", "setting": "[2]; normal rats", "value": 6.03, "unit": "mL/min/kg"}, {"measurement": "MRT last", "setting": "[2]; normal rats", "value": "4.58 ± 0.47", "unit": "h"}, {"measurement": "MRT inf", "setting": "[2]; normal rats", "value": "5.1 ± 0.41", "unit": "h"}, {"measurement": "Cmax", "setting": "[2]; [6]", "value": "8380 ± 1120", "unit": "ng/mL"}, {"measurement": "Tmax", "setting": "[2]; [6]", "value": 0.25, "unit": "h"}, {"measurement": "half-life", "setting": "[2]; [6]", "value": "2.74 ± 0.96", "unit": "h"}, {"measurement": "CL/F", "setting": "[2]; [6]", "value": 7.67, "unit": "mL/min/kg"}, {"measurement": "MRT last", "setting": "[2]; [6]", "value": "4.91 ± 1.29", "unit": "h"}, {"measurement": "MRT inf", "setting": "[2]; [6]", "value": "5.02 ± 1.34", "unit": "h"}, {"measurement": "Cmax", "setting": "[2]; [7]", "value": "14.7 ± 1.38", "unit": "ng/mL"}, {"measurement": "Tmax", "setting": "[2]; [7]", "value": "0.21 ± 0.05", "unit": "h"}, {"measurement": "half-life", "setting": "[2]; [7]", "value": "5.62 ± 1.63", "unit": "h"}, {"measurement": "CL/F", "setting": "[2]; [7]", "value": 4280, "unit": "mL/min/kg"}, {"measurement": "MRT last", "setting": "[2]; [7]", "value": "5.5 ± 0.67", "unit": "h"}, {"measurement": "MRT inf", "setting": "[2]; [7]", "value": "6.62 ± 0.49", "unit": "h"}, {"measurement": "Cmax", "setting": "[2]; [8]", "value": "16000 ± 2790", "unit": "ng/mL"}, {"measurement": "Tmax", "setting": "[2]; [8]", "value": 0.25, "unit": "h"}, {"measurement": "half-life", "setting": "[2]; [8]", "value": "3.75 ± 0.7", "unit": "h"}, {"measurement": "CL/F", "setting": "[2]; [8]", "value": 2.94, "unit": "mL/min/kg"}, {"measurement": "MRT last", "setting": "[2]; [8]", "value": "6.51 ± 0.91", "unit": "h"}, {"measurement": "MRT inf", "setting": "[2]; [8]", "value": "6.92 ± 0.98", "unit": "h"}, {"measurement": "AUC0–t", "setting": "[2]; normal rats", "value": "20134.29 ± 3958.79", "unit": "h∗ng/mL"}, {"measurement": "AUC0–∞", "setting": "[2]; normal rats", "value": "20523.97 ± 3947.05", "unit": "h∗ng/mL"}, {"measurement": "AUC0–t", "setting": "[2]; [6]", "value": "17912.12 ± 6898.16", "unit": "h∗ng/mL"}, {"measurement": "AUC0–∞", "setting": "[2]; [6]", "value": "17998.56 ± 6945.75", "unit": "h∗ng/mL"}, {"measurement": "AUC0–t", "setting": "[2]; [8]", "value": "41028.61 ± 6356.26^∗∗ h∗ng/mL"}, {"measurement": "AUC0–∞", "setting": "[2]; [8]", "value": "41727.10 ± 6203.34^∗∗ h∗ng/mL"}]}
{"smiles": "O=Cc1ccc(O)c(O)c1", "note": "[Protocatechuic aldehyde, protocatechuic aldehyde]", "values": [{"measurement": "Stability, Room temperature for 4 h, Mean", "setting": "[1]; [3]", "value": 87.4, "unit": "%"}, {"measurement": "Stability, Room temperature for 4 h, Mean", "setting": "[1]; [4]", "value": 86.8, "unit": "%"}, {"measurement": "Stability, Room temperature for 4 h, Mean", "setting": "[1]; [5]", "value": 90.9, "unit": "%"}, {"measurement": "Stability, Autosampler at 4°C for 24 h, Mean", "setting": "[1]; [3]", "value": 85.9, "unit": "%"}, {"measurement": "Stability, Autosampler at 4°C for 24 h, Mean", "setting": "[1]; [4]", "value": 88.4, "unit": "%"}, {"measurement": "Stability, Autosampler at 4°C for 24 h, Mean", "setting": "[1]; [5]", "value": 89.3, "unit": "%"}, {"measurement": "Stability, Three freeze-thaw cycles, Mean", "setting": "[1]; [3]", "value": 89.5, "unit": "%"}, {"measurement": "Stability, Three freeze-thaw cycles, Mean", "setting": "[1]; [4]", "value": 90.8, "unit": "%"}, {"measurement": "Stability, Three freeze-thaw cycles, Mean", "setting": "[1]; [5]", "value": 83.4, "unit": "%"}, {"measurement": "Cmax", "setting": "[2]; normal rats", "value": "18.9 ± 3.62", "unit": "ng/mL"}, {"measurement": "Tmax", "setting": "[2]; normal rats", "value": "0.45 ± 0.1", "unit": "h"}, {"measurement": "half-life", "setting": "[2]; normal rats", "value": "10.9 ± 4.48", "unit": "h"}, {"measurement": "CL/F", "setting": "[2]; normal rats", "value": 12.5, "unit": "mL/min/kg"}, {"measurement": "MRT last", "setting": "[2]; normal rats", "value": "5.14 ± 0.17", "unit": "h"}, {"measurement": "MRT inf", "setting": "[2]; normal rats", "value": "15.8 ± 6.12", "unit": "h"}, {"measurement": "Cmax", "setting": "[2]; [6]", "value": "10.1 ± 1.99", "unit": "ng/mL"}, {"measurement": "Tmax", "setting": "[2]; [6]", "value": 0.3, "unit": "h"}, {"measurement": "half-life", "setting": "[2]; [6]", "value": "12 ± 4.69", "unit": "h"}, {"measurement": "CL/F", "setting": "[2]; [6]", "value": 21.3, "unit": "mL/min/kg"}, {"measurement": "MRT last", "setting": "[2]; [6]", "value": "5.52 ± 0.21", "unit": "h"}, {"measurement": "MRT inf", "setting": "[2]; [6]", "value": "17.8 ± 6.26", "unit": "h"}, {"measurement": "Cmax", "setting": "[2]; [7]", "value": "11.4 ± 1.31", "unit": "ng/mL"}, {"measurement": "half-life", "setting": "[2]; [7]", "value": "2.09 ± 0.89", "unit": "h"}, {"measurement": "CL/F", "setting": "[2]; [7]", "value": 50.5, "unit": "mL/min/kg"}, {"measurement": "MRT last", "setting": "[2]; [7]", "value": "2.55 ± 0.18", "unit": "h"}, {"measurement": "MRT inf", "setting": "[2]; [7]", "value": "3.5 ± 1.38", "unit": "h"}, {"measurement": "Cmax", "setting": "[2]; [8]", "value": "8.81 ± 1.61", "unit": "ng/mL"}, {"measurement": "Tmax", "setting": "[2]; [8]", "value": "0.17 ± 0.07", "unit": "h"}, {"measurement": "half-life", "setting": "[2]; [8]", "value": "2.2 ± 0.83", "unit": "h"}, {"measurement": "CL/F", "setting": "[2]; [8]", "value": 48.9, "unit": "mL/min/kg"}, {"measurement": "MRT last", "setting": "[2]; [8]", "value": "3.24 ± 0.37", "unit": "h"}, {"measurement": "MRT inf", "setting": "[2]; [8]", "value": "3.79 ± 0.79", "unit": "h"}, {"measurement": "AUC0–t", "setting": "[2]; normal rats", "value": "64.15 ± 10.30^∗∗ h∗ng/mL"}, {"measurement": "AUC0–∞", "setting": "[2]; normal rats", "value": "119.88 ± 32.93^∗∗ h∗ng/mL"}, {"measurement": "AUC0–t", "setting": "[2]; [6]", "value": "34.92 ± 2.37", "unit": "h∗ng/mL"}, {"measurement": "AUC0–∞", "setting": "[2]; [6]", "value": "72.28 ± 21.64", "unit": "h∗ng/mL"}, {"measurement": "AUC0–t", "setting": "[2]; [7]", "value": "24.70 ± 1.69^∗∗ h∗ng/mL"}, {"measurement": "AUC0–∞", "setting": "[2]; [7]", "value": "28.68 ± 6.49^∗∗ h∗ng/mL"}, {"measurement": "AUC0–t", "setting": "[2]; [8]", "value": "27.48 ± 3.10^∗∗ h∗ng/mL"}, {"measurement": "AUC0–∞", "setting": "[2]; [8]", "value": "28.87 ± 2.69^∗∗ h∗ng/mL"}]}
